Measurements published in patent US10588866B2, “Stable solid lipid particle composition for improved bioavailability of lipophilic compounds for age-related diseases” (VERDURE SCIENCES, priority 2014, dated 2020).

Assay: Single oral dose pharmacokinetics of curcumin in plasma and mesenteric lymph
Type: in vivo, Sprague-Dawley rats
Settings: Sprague-Dawley, rat, plasma, 75 mg/kg
Experimental: Prior to treatment, the rats were anaesthetized followed by a surgical intervention to cannulate the mesenteric mesenteric lymph duct (for lymph collection) and the carotid artery (for blood collection). The cannulas were externalized and the rats were allowed to recover for 24 hours. Thereafter, either the curcumin suspension or the SLCP dosage form was administered via gavage. Blood (0.25 ml) was sampled prior to and 0.5, 1.0, 2.0, 3.0 and 5.0 hours after administration into vials coated with EDTA. Blood samples were centrifuged to obtain plasma and stored at <−30° C. until analysis. Mesenteric lymph (0.25 ml) was collected prior to and 1 and 5 hours after administration into vials coated with EDTA and stored at <−30° C. until analysis.
Analysis of curcumin and glucuronated curcumin was performed by HPLC with UV-detection coupled to MS according to published methods. […] The Limit of Determination was set to 2.5 ng/ml biological fluid.

AUC(0-t): 562 ng·h/mL
Cmax: 190 ng/mL
Structure (SMILES): COc1cc(/C=C/C(=O)CC(=O)/C=C/c2ccc(O)c(OC)c2)ccc1O [Standard, Curcumin]
